Reference: patent US20190216831A1 (priority 2015, published 2019)

Experiments:
[1] = test system: EIAVWYO; experiment: EIAV replication kinetics in equine dermal cells, RT qPCR of culture supernatants; type: cell-based, Equine infectious anemia virus; settings: for EIAV viral replication decreased to (from 10^8) / EIAV viral replication reduced to (from 10^8): 10 μM; for EIAV viral replication decreased to (from 10^8): day 15 post infection; for EIAV viral replication reduced to (from 10^8): day 15 and 20 post infection
Description: Equine dermal cells (3×10^4 cells per well of a 96-well plate) were seeded and incubated in complete media (as described above for NEV infections) under 5% CO2 at 37° C., for 24 h to 72 hours prior to infection. The antiviral effect adefovir dipivoxil, as well as other are antiviral drugs approved by FDA or EMA such as Zidovudine (nucleoside reverse transcription inhibitor), Nevirapine (non-nucleoside reverse transcription inhibitor), Indinavir sulphate (a HIV-1 protease inhibitor), Darunavir Ethanolate (a HIV-1 protease inhibitor), Daclastavir (HCV NS5A inhibitor), Cyclosporin A (immunosuppressive agent) and the drug that is being evaluated in pre-clinical/clinical assays as antivirals, such as Tenofovir (a nucleoside reverse transcription inhibitor), was evaluated (FIGS. 4A and 4B).
The drugs mentioned above were also tested as antivirals for EIAV. For that cells were pre-treated with drugs at two different concentrations 1 or 10 μM for 1 hour in triplicates. Cells were then infected with EIAVWYO (3 MOI for 2 hours). After infection fresh media and drugs were replaced and cells incubated for 5, 10, 15 and 20 days. The EIAVWYO replication was evaluated by quantifying EIAV viral genome in culture supernatants by means of RT qPCR. FIGS. 4A and 4B show the effect of the different drugs in EIAV replication kinetics. […] Virus was only recovered at low levels from treated cells in one of three replicate at day 5 (10 viral particles/mL) and another of three replicates at day 15 (100 viral particles/mL). The differences observed between the treated and not treated infected cells were statistically significant for p<0.001.

[2] = test system: NEV; experiment: Dose response: PrestoBlue cell viability of NEV-infected equine macrophage cell line (MacF); type: cell-based, New Equine Virus
Description: An equine macrophage cell line (MacF) was spontaneously immortalized from a NEV-seropositive horse accordingly the procedures reported in Fidalgo-Carvalho et. al, 2009.
Cells were incubated 24 to 72 hours before NEV infection until 95%-99% confluent cell monolayers were attained.
(Selleckchem, Germany), as reported above for ED cells. To determine drug IC50 in MacF cell line, eleven serial dilutions of 1:4 ranging from 0.05 nM to 28 μM were performed in quintuplicates for each drug concentration. MacF Cells were pre-treated with drug for 60 minutes before infection, and treatment was maintained during infection. NEV viral particles (10 μl containing 1130 PFU) were added to the cell culture media for 2 hours. […] Eleven days after infection, cells were screened for viability by using the PrestoBlue cell viability assay (Molecular Probes, Life Technologies) accordingly to manufacturer instructions. Absorbance (570 nm) of adefovir dipivoxil treated cells was compared to those of non-infected and/or untreated NEV infected cells.

[3] = test system: EHV-1; experiment: PrestoBlue cell viability of EHV-1 infected MacF macrophage-like cells; type: cell-based, Equine herpesvirus 1; settings: Equus caballus, 144 h, day 6 post infection, average of two independent experiments
Description: (§1) Antiviral activity of Adefovir dipivoxil was also evaluated in macrophage like cell lines. […] (Selleckchem, Germany). The pre-treatment with the drug preceded the infection.
(§2) Infections studies, viral particle quantification and cell viability assays were performed as described above for antiviral assays in ED cells.
(§3) Antiviral activity of Tenofovir disoproxil fumarate was also evaluated in macrophage like cell lines. […] (Selleckchem, Germany). The pre-treatment with the drug preceded the infection.
(§4) EHV-1 cell infections, viral particle production and cell viability assays were assayed as described in example 5.

[4] = test system: EHV-1; experiment: EHV-1 viral particles in supernatant of ED cells by qPCR; type: cell-based, Equine herpesvirus 1; settings: Equus caballus, 72 h, day 3 post infection
Description: (Selleckchem, Germany). The pre-treatment with the drug preceded the infection.
A standard curve of an EHV-1 synthetic DNA was used. To obtain the standard curve, seven 1:10 dilutions of the synthetic DNA in duplicates were tested in parallel. Samples were tested in triplicates. The standard curve obtained (with R2 0.995, Efficiency 91.7%) allowed us to quantify the EHV-1 viral particles produced into the cell culture media.

[5] = test system: EHV-1; settings: ED cells
Description: (§6) Equine Dermal cells (ATCC CCL57) (10^5 cells/cm^2) were seeded in 96 well plates 24 to 72 hours before infection in complete media and incubated in a humid chamber at 37° C. and 5% CO2 until 95%-99% confluent monolayers were attained. Complete media was composed of DMEM medium (Gibco, Thermofisher Scientific) with 10% of Inactivated Fetal bovine serum (Gibco, Thermofisher Scientific), 1% of Glutamax (Gibco, Life Technologies) and 1% Penicilin-Streptamicin (Gibco, Thermofisher Scientific). […] (Selleckchem, Germany). The pre-treatment with the drug preceded the infection.
(§7) ED cells were pre-treated with drug for 30 minutes before infection, and treatment maintained during infection.
(§8) Cells were infected with EHV-1 at 1 MOI for 2 hours. Infective EHV-1 viral particles were produced in ED cells with an EHV-1 molecular clone purchased from ATCC (VR-2248). After infection cells were washed twice with HBSS to remove unbound virus and fresh complete media and fresh drug was replaced in each well. Treatment was maintained during 6 days without addition of fresh drug.
(§9) After 6 days post-infection reazurin-based cell viability assays (PrestoBlue, Thermofisher Scientific) were used to evaluate the increased cell numbers in the same conditions as indicated above for qPCR quantification. […] 15 μl of Prestoblue reagent was added directly to the assay wells and absorbance measured at 570 nm after 24 hours of incubation with the Prestoblue reagent. All the absorbance values were corrected by removing the baseline, absorbance values of the Prestoblue reagent incubated 24 hours without cells. The results were analysed by Prism software by using the four-parameter function (log (drug) vs. response assuming a variable slope).
(§10) Equine Dermal cells (ATCC CCL57) (10^5 cells/cm^2) were seeded in 96 well plates 24 to 72 hours before infection in complete media and incubated in a humid chamber at 37° C. and 5% CO2 until 95%-99% confluent monolayers were attained. Complete media was composed of DMEM medium (Gibco, Thermofisher Scientific) with 10% of Inactivated Fetal bovine serum (Gibco, Thermofisher Scientific), 1% of Glutamax (Gibco, Thermofisher Scientific) and 1% Penicilin-Streptamicin (Gibco, Thermofisher Scientific). […] (Selleckchem, Germany). The pre-treatment with the drug preceded the infection.

[6] = in vitro; settings: horse (equine)
Description: For that, ED cells (10^5 cells/cm^2) were seeded as mentioned above in 96-well plates. […] To determine drug CC50, twelve different concentrations of 4, 6, 9, 13.5, 20.250, 30.370, 45.560, 68.340, 102.520, 153.770, 230.660 and 2000 μM were performed in quintuplicates per each drug concentration. Cell viability was assessed by using the PrestoBlue reagent as mention above for IC50 analysis and incubated for 24 hours.
For that, ED cells (10^5 cells/cm^2) were seeded as mentioned above in 96-well plates. […] To determine drug CC50, ten different 1:1.3 serial dilutions from 25.39 to 350 μM were performed in quintuplicates per each drug concentration. Cell viability was assessed by using the PrestoBlue reagent as mention above for IC50 analysis and incubated for 24 hours.

[7] = test system: EIAVWYO; experiment: IC50 for EIAVWYO viral replication in ED cells by RT qPCR; type: cell-based; settings: Equine infectious anemia virus, 168 h, read-out: IC50 (EIAVWYO viral replication)
Description: Furthermore, to better evaluate the effect of the drug on EIAVWYO viral replication on ED cells, we have determined the IC50 of adefovir dipivoxil. […] (Selleckchem, Germany) for 60 minutes. The pre-treatment with Adefovir dipivoxil (Selleckchem, Germany) preceded the infection. Eleven serial dilutions ranging from 0.01 to 10,000 nM (0.01, 19.53, 39.06, 78.130, 156.250, 312.5, 625, 1250, 2500, 5000 and 10000 nM) were performed in triplicates for each drug concentration. Treatment was maintained during infection. EIAVWYO viral particles (10 μl containing 1.9×10^5 viral particles) were added in each well of a 96-well plate and incubated for 2 hours. […] For quantification, a standard curve of an EIAV plasmid DNA was used. To obtain the standard curve, seven 1:10 dilutions in duplicates were tested in parallel. Samples were tested in triplicates. The standard curve obtained (with R^2 0.994, Efficiency 96.56%) allowed us to quantify the viral particles.

[8] = test system: EHV-1; experiment: EHV-1 viral particles in supernatant of MacF macrophage-like cells by qPCR; type: cell-based, Equine herpesvirus 1; settings: Equus caballus, 72 h, day 3 post infection
Description: as §1, §2, §3, §4

[9] = Cytotoxicity (CC50) in MacF macrophage cell line, PrestoBlue; type: cell-based; settings: horse (equine), MacF cells, treated for 7 days
Excerpt: (Selleckchem, Germany) for 7 days.

[10] = test system: EHV-1; experiment: cells; settings: Equus caballus, 144 h, read-out: IC50 for EHV-1 by cell viability
Description: as §6, §7, §8, §9, §10

[11] = test system: NEV; experiment: Dose response: PrestoBlue cell viability of NEV-infected ED cells; type: cell-based, New Equine Virus
Description: (§5) Complete media was composed of DMEM medium (Gibco, Life Technologies) with 10% Inactivated Fetal bovine serum (Gibco, Life Technologies), 1% Glutamax (Gibco, Life Technologies) and 1% Penicillin-Streptamicin (Gibco, Life Technologies).
(Selleckchem, Germany). The pre-treatment with adefovir dipivoxil (Selleckchem, Germany) preceded the infection. To determine drug IC50 ten 1:2 serial dilutions ranging from 5 to 2560 nM concentrations were performed in quintuplicates for each drug concentration. ED cells were pre-treated with drug for 60 minutes before infection, and treatment maintained during infection. NEV viral particles (10 μl containing 1130 PFU) were added to the cell culture media for 2 hours. […] Eleven days after infection, cells were screened for viability by using the PrestoBlue cell viability assay (Molecular Probes, Life Technologies) accordingly to manufacturer instructions. Absorbance (570 nm) of adefovir dipivoxil treated cells was compared to those of non-infected and/or untreated NEV-infected cells.

[12] = test system: NEV; experiment: Antiviral drug screen: PrestoBlue cell viability of NEV-infected Equine Dermal cells; type: cell-based, New Equine Virus; settings: ED cells, 9 days
Excerpt: as §5
The antiviral effect of adefovir dipivoxil, as well as other are antiviral drugs approved by FDA or EMA such as Zidovudine (nucleoside reverse transcription inhibitor), Nevirapine (non-nucleoside reverse transcription inhibitor), Indinavir sulphate (a HIV-1 protease inhibitor), Darunavir Ethanolate (a HIV-1 protease inhibitor), Daclastavir (HCV NS5A inhibitor), Cyclosporin A (immunosuppressive agent) and the drug that is being evaluated in pre-clinical/clinical assays as antivirals, such as Tenofovir (a nucleoside reverse transcription inhibitor), was evaluated (FIGS. 4A and 4B). Cells were pre-treated with drugs at 1 or 10 μM in quintuplicates for one hour and infected with NEV (1130 PFU per well) for 2 hours. After 2 hours fresh media with drugs was replaced. Cells were then incubated for 9 days in a humid chamber 37° C. and 5% CO2. After 9 days cellular viability of treated cells was compared to those of non infected cells and infected and not treated cells by using PrestoBlue cell viability reagent. […]

For `CC(C)CN(C[C@@H](O)[C@H](Cc1ccccc1)NC(=O)O[C@H]1CO[C@H]2OCC[C@H]21)S(=O)(=O)c1ccc(N)cc1` [Darunavir], the “EIAV viral replication decreased to (from 10^8)” value [1] was 10^3 viral particles/mL.
For `CC(C)(C)NC(=O)[C@@H]1CN(Cc2cccnc2)CCN1C[C@@H](O)C[C@@H](Cc1ccccc1)C(=O)N[C@H]1c2ccccc2C[C@H]1O` [Indinavir], the “EIAV viral replication decreased to (from 10^8)” value [1] was 10^4 viral particles/mL.
For `CC(C)(C)C(=O)OCOP(=O)(COCCn1cnc2c(N)ncnc21)OCOC(=O)C(C)(C)C` [adefovir dipivoxil, 9-[2-[[bis[(pivaloyloxy)methoxy]phosphinyl]-methoxy]ethyl]adenine], the “cell viability (absorbance) compared with Mock MacF cells” value ([2]; 14 μM, 11 days post NEV infection) was “very similar (or even slightly higher)”, the IC50 ([2]; Equus caballus, Macrophage, 264 h, MacF cells, 11 days after infection) was 3.83 µM and the IC50 [3] was 0.172 µM. The IC50 ([4]; three independent experiments) was 0.00442 µM, the “therapeutic index (CC50/IC50) for EHV-1” value [5] was 1162.3 and the CC50 at 6 days ([6]; Equine Dermal (ED) cells (ATCC CCL57)) was 142 µM. The IC50 [7] was 0.00338 µM, the IC50 ([8]; average of three independent experiments) was 0.142 µM and the CC50 at 7 days [9] was 207 µM. For the same compound, the “effect on EIAV replication” value ([1]; ED cells, 1 or 10 μM, single dose, up to 20 days) was “blocked the EIAV replication”, the “virus recovered from treated cells” value ([1]; day 5, one of three replicates) was 10 viral particles/mL and the “virus recovered from treated cells” value ([1]; day 15, one of three replicates) was 100 viral particles/mL. The IC50 [10] was 0.123 µM, the “cell viability (absorbance) compared with non-infected mock cells” value ([11]; 320 nM, 11 days post NEV infection) was “very similar absorbance values” and the IC50 ([11]; Equus caballus, 264 h, 11 days after infection) was 0.113 µM. For the same compound, the “cellular viability of NEV infected cells” value ([12]; drug at 1 or 10 μM, vs non infected and untreated infected cells) was “completely reverted the effect of NEV on cellular viability”.
For `CC(C)OC(=O)OCOP(=O)(CO[C@H](C)Cn1cnc2c(N)ncnc21)OCOC(=O)OC(C)C.O=C(O)/C=C/C(=O)O` [tenofovir disoproxil fumarate], the IC50 [3] was 22.7 µM, the IC50 ([4]; average of four independent experiments) was 7.44 µM and the “therapeutic index (CC50/IC50) for EHV-1” value [5] was 8.334. It also gave a CC50 at 3 days [6] of 117 µM, an IC50 ([8]; average of two independent experiments) of 1.13 µM and an IC50 [10] of 14 µM.
In the case of `C[C@H](Cn1cnc2c(N)ncnc21)OCP(=O)(O)O` [tenofovir, [(2R)-1-(6-aminopurin-9-yl)propan-2-yl]oxymethylphosphonic acid], the “EIAV viral replication reduced to (from 10^8)” value [1] is reported as 10^5 viral particles/mL and the “cell viability of NEV infected cells” value ([12]; drug at 10 μM) is reported as “increased the cell viability of infected cells”.
For `Cc1cn([C@H]2C[C@H](N=[N+]=[N-])[C@@H](CO)O2)c(=O)[nH]c1=O` [zidovudine], the “EIAV viral replication reduced to (from 10^8)” value [1] was 10^5 viral particles/mL.
